Experimental data: patent publication US20080096861A1, “Chemical Compounds” (SMITHKLINE BEECHAM CORPORATION, priority 2004, published 2008)

Test system: HIV-1 IIIB
Assay: HOS HIV-1 infectivity assay
Type: cell-based
Details: Human immunodeficiency virus 1, IIIB; as determined by the infectivity assay; strain not stated in Table 2; read-out: Activity Level
Protocol: Compounds were profiled against two HIV-1 viruses, the M-tropic (CCR5 utilizing) Ba-L strain and the T-tropic (CXCR4 utilizing) IIIB strain. Both viruses were propagated in human peripheral blood lymphocytes. Compounds were tested for there ability to block infection of the HOS cell line (expressing hCXCR4/hCCR5/hCD4/pHIV-LTR-luciferase) by either HIV-1 Ba-L or HIV-1 IIIB. Compound cytotoxicity was also examined in the absence of virus addition.
HOS cells (expressing hCXCR4/hCCR5/hCD4/pHIV-LTR-luciferase) were harvested and diluted in Dulbeccos modified Eagles media supplemented with 2% FCS and non-essential amino acid to a concentration of 60,000 cells/ml. The cells were plated into 96-well plates (100 ul per well) and the plates were placed in a tissue culture incubator (37° C.; 5% CO2/95% air) for a period of 24 h.
Subsequently, 50 ul of the desired drug solution (4 times the final concentration) was added to each well and the plates were returned to the tissue culture incubator (37° C.; 5% CO2/95% air) for 1 h. Following this incubation 50 ul of diluted virus was added to each well (approximately 2 million RLU per well of virus). The plates were returned to the tissue culture incubator (37° C.; 5% CO2/95% air) and were incubated for a further 96 h.
Following this incubation the endpoint for the virally infected cultures was quantified following addition of Steady-Glo Luciferase assay system reagent (Promega, Madison, Wis.). Cell viability or non-infected cultures was measured using a CellTiter-Glo luminescent cell viability assay system (Promega, Madison, Wis.). All luminescent readouts are performed on a Topcount luminescence detector (Packard, Meridien, Conn.).

| Compound | IC50 [nM] |
| --- | --- |
| CC(C)CCN1CCC[C@@H](Cn2c(CN(C)[C@@H]3CCCc4cccnc43)nc3ccccc32)C1 [Example 78, (8R)—N-Methyl-N-[(1-{[(3R)-1-(3-methylbutyl)-3-piperidinyl]methyl}-1H-benzimidazol-2-yl)methyl]-5,6,7,8-tetrahydro-8-quinolinamine] | 100 to 500 |
| CN(C)CCCn1ccnc1CN(C)C1CCCc2cccnc21 (stereo not drawn) [Example 38, N-({1-[3-(Dimethylamino)propyl]-1H-imidazol-2-yl}methyl)-N-methyl-5,6,7,8-tetrahydro-8-quinolinamine] | 500 to 10000 |
| CN(Cc1nc2ccccc2n1C[C@@H]1CCCN(C(=N)N)C1)[C@H]1CCCc2cccnc21 [Example 87, (3S)-3-{[2-({Methyl[(8S)-5,6,7,8-tetrahydro-8-quinolinyl]amino}methyl)-1H-benzimidazol-1-yl]methyl}-1-piperidinecarboximidamide] | < 100 |
| CN(Cc1nc2ccccc2n1CCc1cn(C)cn1)C1CCCc2cccnc21 (stereo not drawn) [Example 72, N-Methyl-N-({1-[2-(1-methyl-1H-imidazol-4-yl)ethyl]-1H-benzimidazol-2-yl}methyl)-5,6,7,8-tetrahydro-8-quinolinamine] | 500 to 10000 |
| CC(C)N1CCC[C@H](Cn2c(CN(CCCO)[C@H]3CCCc4cccnc43)nc3ccccc32)C1 [Example 100, 3-{[(1-{[(3S)-1-(1-Methylethyl)-3-piperidinyl]methyl}-1H-benzimidazol-2-yl)methyl][(8S)-5,6,7,8-tetrahydro-8-quinolinyl]amino}-1-propanol] | < 100 |
| CC(C)CN(Cc1nc2ccccc2n1C[C@H]1CCCN(C(C)C)C1)[C@H]1CCCc2cccnc21 [Example 98, (8S)—N-[(1-{[(3S)-1-(1-Methylethyl)-3-piperidinyl]methyl}-1H-benzimidazol-2-yl)methyl]-N-(2-methylpropyl)-5,6,7,8-tetrahydro-8-quinolinamine] | 100 to 500 |
| CN(C)CCN1CCC[C@H](Cn2c(CN(C)[C@H]3CCCc4cccnc43)nc3ccccc32)C1 [Example 105, (8S)—N-{[1-({(3S)-1-[2-(Dimethylamino)ethyl]-3-piperidinyl}methyl)-1H-benzimidazol-2-yl]methyl}-N-methyl-5,6,7,8-tetrahydro-8-quinolinamine] | < 100 |
| CN(Cc1nc2ccccc2n1CCCNS(=O)(=O)c1ccccc1)C1CCCc2cccnc21 (stereo not drawn) [Example 62, N-[3-(2-{[Methyl(5,6,7,8-tetrahydro-8-quinolinyl)amino]methyl}-1H-benzimidazol-1-yl)propyl]benzenesulfonamide] | 100 to 500 |
| CN(Cc1nc2ccccc2n1C[C@H]1CCCN(Cc2ccccc2)C1)[C@H]1CCCc2cccnc21 [Example 43, (8S)—N-Methyl-N-[(1-{[(3S)-1-(phenylmethyl)-3-piperidinyl]methyl}-1H-benzimidazol-2-yl)methyl]-5,6,7,8-tetrahydro-8-quinolinamine] | < 100 |
| CN(C)Cc1ccc(-n2c(CN(C)C3CCCc4cccnc43)nc3ccccc32)cc1 (stereo not drawn) [Example 73, N-[(1-{4-[(Dimethylamino)methyl]phenyl}-1H-benzimidazol-2-yl)methyl]-N-methyl-5,6,7,8-tetrahydro-8-quinolinamine] | 500 to 10000 |
| CN(Cc1nc2ccccc2n1CC(=O)NCc1cccnc1)C1CCCc2cccnc21 (stereo not drawn) [Example 29, 2-(2-{[Methyl(5,6,7,8-tetrahydro-8-quinolinyl)amino]methyl}-1H-benzimidazol-1-yl)-N-(3-pyridinylmethyl)acetamide] | < 100 |
| CN(Cc1nc2ccccc2n1C[C@H]1CCCN(C(=N)N)C1)[C@H]1CCCc2cccnc21 [Example 89, (3R)-3-{[2-({Methyl[(8S)-5,6,7,8-tetrahydro-8-quinolinyl]amino}methyl)-1H-benzimidazol-1-yl]methyl}-1-piperidinecarboximidamide] | < 100 |
| CC(C)N1CCC[C@@H](Cn2c(CN(C)[C@H]3CCCc4cccnc43)nc3ccccc32)C1 [Example 81, (8S)—N-Methyl-N-[(1-{[(3R)-1-(1-methylethyl)-3-piperidinyl]methyl}-1H-benzimidazol-2-yl)methyl]-5,6,7,8-tetrahydro-8-quinolinamine] | < 100 |
| CN1CCC[C@@H](Cn2c(CN(C)[C@H]3CCCc4cccnc43)nc3ccccc32)C1 [Example 75f, (8S)—N-Methyl-N-[(1-{[(3R)-1-methyl-3-piperidinyl]methyl}-1H-benzimidazol-2-yl)methyl]-5,6,7,8-tetrahydro-8-quinolinamine] | < 100 |
| CN(C)Cc1ccccc1Cn1c(CN(C)C2CCCc3cccnc32)nc2ccccc21 (stereo not drawn) [Example 50, N-{[1-({2-[(Dimethylamino)methyl]phenyl}methyl)-1H-benzimidazol-2-yl]methyl}-N-methyl-5,6,7,8-tetrahydro-8-quinolinamine] | 100 to 500 |
| CCCN(Cc1nc2ccccc2n1C[C@H]1CCCN(C)C1)[C@H]1CCCc2cccnc21 [Example 93, (8S)—N-[(1-{[(3S)-1-Methyl-3-piperidinyl]methyl}-1H-benzimidazol-2-yl)methyl]-N-propyl-5,6,7,8-tetrahydro-8-quinolinamine] | < 100 |
| CN1CCC[C@H](Cn2c(CN(CCO)[C@H]3CCCc4cccnc43)nc3ccccc32)C1 [Example 95, 2-{[(1-{[(3S)-1-Methyl-3-piperidinyl]methyl}-1H-benzimidazol-2-yl)methyl][(8S)-5,6,7,8-tetrahydro-8-quinolinyl]amino}ethanol] | < 100 |
| CN(Cc1nc2ccccc2n1CCc1cccnc1)C1CCCc2cccnc21 (stereo not drawn) [Example 36] | 100 to 500 |
| CN(Cc1nc2ccccc2n1CCCCNS(C)(=O)=O)C1CCCc2cccnc21 (stereo not drawn) [Example 51, N-[4-(2-{[Methyl(5,6,7,8-tetrahydro-8-quinolinyl)amino]methyl}-1H-benzimidazol-1-yl)butyl]methanesulfonamide] | 100 to 500 |
| CN1CCC[C@@H]1CN1CCC[C@H](Cn2c(CN(C)[C@H]3CCCc4cccnc43)nc3ccccc32)C1 [Example 108, (8S)—N-Methyl-N-([1-[((3S)-1-{[(2R)-1-methyl-2-pyrrolidinyl]methyl}-3-piperidinyl)methyl]-1H-benzimidazol-2-yl]methyl)-5,6,7,8-tetrahydro-8-quinolinamine] | < 100 |
| NCCCCn1c(CN(CCc2ccccc2)C2CCCc3cccnc32)nc2ccccc21 (stereo not drawn) [Example 53, N-{[1-(4-Aminobutyl)-1H-benzimidazol-2-yl}methyl]-N-(2-phenylethyl)-5,6,7,8-tetrahydro-8-quinolinamine] | 500 to 10000 |
| CN(Cc1nc2ccccc2n1CC(=O)NCc1ccccn1)C1CCCc2cccnc21 (stereo not drawn) [Example 33, 2-(2-{[Methyl(5,6,7,8-tetrahydro-8-quinolinyl)amino]methyl}-1H-benzimidazol-1-yl)-N-(2-pyridinylmethyl)acetamide] | 100 to 500 |
| CN(C)CCCCCCn1c(CN(C)C2CCCc3cccnc32)nc2ccccc21 (stereo not drawn) [Example 49, N-({1-[6-(Dimethylamino)hexyl]-1H-benzimidazol-2-yl}methyl)-N-methyl-5,6,7,8-tetrahydro-8-quinolinamine] | 100 to 500 |
| CN(Cc1nc2ccccc2n1CCCN)C1CCCc2cccnc21 (stereo not drawn) [Example 15b, N-{[1-(3-Aminopropyl)-1H-benzimidazol-2-yl]methyl}-N-methyl-5,6,7,8-tetrahydro-8-quinolinamine] | < 100 |
| CN(Cc1nc2ccccc2n1C[C@H]1CCCN(CCO)C1)[C@H]1CCCc2cccnc21 [Example 46, 2-((3S)-3-{[2-({Methyl[(8S)-5,6,7,8-tetrahydro-8-quinolinyl]amino}methyl)-1H-benzimidazol-1-yl]methyl}-1-piperidinyl)ethanol] | < 100 |
| CC(C)CN1CCC[C@H](Cn2c(CN(C)[C@H]3CCCc4cccnc43)nc3ccccc32)C1 [Example 44, (8S)—N-Methyl-N-[(1-{[(3S)-1-(2-methylpropyl)-3-piperidinyl]methyl}-1H-benzimidazol-2-yl)methyl]-5,6,7,8-tetrahydro-8-quinolinamine] | < 100 |
| CC(C)N1CCC[C@H](Cn2c(CN(C)[C@@H]3CCCc4cccnc43)nc3ccccc32)C1 [Example 83, (8R)—N-methyl-N-[(1-{[(3S)-1-(1-methylethyl)-3-piperidinyl]methyl}-1H-benzimidazol-2-yl)methyl]-5,6,7,8-tetrahydro-8-quinolinamine] | < 100 |
| CN(Cc1nc2ccccc2n1CC(=O)NCc1ccncc1)C1CCCc2cccnc21 (stereo not drawn) [Example 28, 2-(2-{[Methyl(5,6,7,8-tetrahydro-8-quinolinyl)amino]methyl}-1H-benzimidazol-1-yl)-N-(4-pyridinylmethyl)acetamide] | 100 to 500 |
| CN(C)CC#CCn1c(CN(C)C2CCCc3cccnc32)nc2ccccc21 (stereo not drawn) [Example 56, N-({1-[4-(Dimethylamino)-2-butyn-1-yl}-1H-benzimidazol-2-yl]methyl)-N-methyl-5,6,7,8-tetrahydro-8-quinolinamine] | 100 to 500 |
| CC(C)CCN1CCC[C@H](Cn2c(CN(C)[C@H]3CCCc4cccnc43)nc3ccccc32)C1 [Example 84, (8S)—N-Methyl-N-[(1-{[(3S)-1-(3-methylbutyl)-3-piperidinyl]methyl}-1H-benzimidazol-2-yl)methyl]-5,6,7,8-tetrahydro-8-quinolinamine] | < 100 |
